# Assay results as given in patent USRE48077E1, “Methods of treating ototoxicity” (Anida Pharma Inc., priority 2013, dated 2020).
# Like-named read-outs stand apart in the source and are kept apart here.
# What was measured:
# Type in all cases: cell-based, mouse
# [1] = Cell survival by FITC-AnnexinV/propidium iodide apoptosis detection, flow cytometry; conditions: mouse, no cisplatin; for viability at 1 nM: NPD1 1 nM alone; for viability at 10 nM: NPD1 10 nM alone; for viability at 100 nM: NPD1 100 nM alone
# Experimental: (§1) The cultures were kept at 33° C. in an incubator with 10% CO2. Cell survival after NPD1 treatment was also analyzed in UB/OC-1 cells in the presence or absence of damage. Specifically, cell death via apoptosis was determined by using FITC-AnnexinV Apoptosis detection kit (BD Pharmingen, San Diego, Calif., USA) and quantified by flow cytometry. In brief, 3,500 UB/OC-1 cells per well were seeded into a 96-well plate. […] At the end of the treatment time, UB/OC-1 cells were washed once with phosphate buffered saline (PBS) and harvested in a 0.5% trypsin/EDTA solution at 37° C., centrifuged at 220×g for 5 min and then immediately resuspended in the physiological buffer provided in the kit. […] The results were quantified using the CellQuest software (BD Biosciences, San Jose, Calif.). Data are expressed as percent viable (non-apoptotic cells) with the number of cells seeded into each well used as 100%. Three independent experiments were performed.
# UB/OC-1 cells [2] = experiment: as above; conditions: for viability at 0.001 µM / viability at 0.01 µM / viability at 0.1 µM: Mus musculus
# Experimental: as §1
# TRPV-1 = experiment: Immunofluorescence staining of stress and inflammatory markers: TRPV-1
# Experimental: (§2) The cultures were kept at 33° C. in an incubator with 10% CO2. Detection of stress and inflammatory markers in UB/OC-1 cells was performed by immunofluorescence staining. UB/OC-1 cells were first plated in a 12 well plate. […] After the treatment, the cells were fixed with 4% paraformaldehyde (Sigma, St. Louis, Mo.), followed by washing once with phosphate buffered saline (PBS). Coverslips were then incubated with solution A—5% donkey serum (Jackson Immuno Laboratories, West Grove, Pa.) and 0.5% Triton-X (Sigma, St. Louis, Mo.) in PBS for 30 min at room temperature. Double immunostaining for different markers NOX3, iNOS, TRPV1 or TNF-α (1:300 dilution) in solution A was performed overnight at 4° C. Secondary antibody mix was then added and incubated for 1 h at 37° C. After 3 washes with PBS and two washes with fresh distilled water the coverslips were mounted on glass slides using Vectashield mounting medium containing DAPI (Vector Laboratories, Inc. Burlingame, Calif.) for nuclear staining, before imaging under an LEICA confocal microscope (Buffalo Grove, Ill.).
# TNFα = experiment: Immunofluorescence staining of stress and inflammatory markers: TNFα
# Experimental: as §2
# UB/OC-1 cells [3] = experiment: Cell viability by MTS assay (CellTiter 96 AQueous One Solution Cell Proliferation Assay), with and without cisplatin-induced damage; conditions: 24 hours
# Experimental: In the examples described herein, UB/OC-1 cells, or immortalized organ of Corti cells derived from the mouse, were utilized to examine the activity of NPD1 in the context of ototoxic damage. […] The cultures were kept at 33° C. in an incubator with 10% CO2. […] In brief, 3,500 cells per well were seeded into a 96-well plate. […] NPD1 treatment of 1-100 nM concentrations was tested in 3 independent experiments. A cell proliferation assay was performed by using Cell-Titer 96® AQueous One Solution Cell Proliferation Assay Kit (Promega, Madison, Wis.), according to the manufacturer's instructions. After 24 hours, 20 μl of CellTiter 96 AQueous One Solution reagent was added to each well in 100 μl of total volume of media. Cells were incubated for 3 to 4 hours, and absorbance was recorded at 490 nm using an ELISA plate reader. The absorbance is directly proportional to the number of living cells and is expressed as a percent relative to vehicle-treated cells.
# [4] = test system: reactive oxygen species (ROS) in UB/OC-1 cells; experiment: ROS generation by CellROX green staining, confocal imaging
# Experimental: The cultures were kept at 33° C. in an incubator with 10% CO2. UB/OC1 cells were cultured on glass coverslips in 12-well culture plates. […] The cells were then washed once with phosphate buffered saline (PBS), and fixed in 4% paraformaldehyde for 15 minutes. The coverslips were then mounted with DAPI containing Vectashield (Vector Labs, Burlingame, Calif.).
# NOX3 = experiment: Immunofluorescence staining of stress and inflammatory markers: NOX3
# Experimental: as §2
# iNOS = experiment: Immunofluorescence staining of stress and inflammatory markers: iNOS
# Experimental: as §2
# [5] = average of three experiments, read-out: Cell Viability Avg.
# [6] = read-out: Set II Cell Viability
# [7] = read-out: Set III Cell Viability
# [8] = NPD1 (1, 10, 100 nM; particularly at 10 nM) 30 minutes, then cisplatin 2.5 μM 24 hours
# [9] = NPD1 at 1 nM, 10 nM and 100 nM 30 minutes, then cisplatin 2.5 μM 24 hours
# [10] = cisplatin only 2.5 μM, 24 hours
compound,measurement,setting,value
"CC/C=C\C[C@H](O)\C=C/C=C/C=C/[C@H](O)C/C=C\C/C=C\CCC(=O)[O-].[Na+] [NPD1, Sodium (4Z,7Z,10R,11E,13E,15Z,17S,19Z)-10,17-dihydroxydocosa-4,7,11,13,15,19-hexaenoate]",viability at 1 nM,[1]; [5],96.8%
same,viability at 1 nM,[1]; read-out: Set I Cell Viability,96%
same,viability at 1 nM,[1]; [6],96%
same,viability at 1 nM,[1]; [7],98.5%
same,viability at 10 nM,[1]; [5],96.9%
same,viability at 10 nM,[1]; read-out: Set I Cell Viability,96%
same,viability at 10 nM,[1]; [6],97%
same,viability at 10 nM,[1]; [7],97.7%
same,viability at 100 nM,[1]; [5],96.2%
same,viability at 100 nM,[1]; read-out: Set I Cell Viability,91%
same,viability at 100 nM,[1]; [6],98%
same,viability at 100 nM,[1]; [7],99.5%
same,viability at 0.001 µM,"UB/OC-1 cells [2]; read-out: Cell Viability Avg., NPD1 1 nM, 30 minutes later cisplatin 20 μM for 24 h, average of three experiments",87.6%
same,viability at 0.01 µM,"UB/OC-1 cells [2]; read-out: Cell Viability Avg., NPD1 10 nM, 30 minutes later cisplatin 20 μM for 24 h, average of three experiments",88.8%
same,viability at 0.1 µM,"UB/OC-1 cells [2]; read-out: Cell Viability Avg., NPD1 100 nM, 30 minutes later cisplatin 20 μM for 24 h, average of three experiments",89.2%
same,viability at 0.001 µM,"UB/OC-1 cells [2]; read-out: Set I Cell Viability, NPD1 1 nM, 30 minutes later cisplatin 20 μM for 24 h",85%
same,viability at 0.01 µM,"UB/OC-1 cells [2]; read-out: Set I Cell Viability, NPD1 10 nM, 30 minutes later cisplatin 20 μM for 24 h",84%
same,viability at 0.1 µM,"UB/OC-1 cells [2]; read-out: Set I Cell Viability, NPD1 100 nM, 30 minutes later cisplatin 20 μM for 24 h",90%
same,viability at 0.001 µM,"UB/OC-1 cells [2]; read-out: Set II Cell Viability, NPD1 1 nM, 30 minutes later cisplatin 20 μM for 24 h",83%
same,viability at 0.01 µM,"UB/OC-1 cells [2]; read-out: Set II Cell Viability, NPD1 10 nM, 30 minutes later cisplatin 20 μM for 24 h",86%
same,viability at 0.1 µM,"UB/OC-1 cells [2]; read-out: Set II Cell Viability, NPD1 100 nM, 30 minutes later cisplatin 20 μM for 24 h",80%
same,viability at 0.001 µM,"UB/OC-1 cells [2]; read-out: Set III Cell Viability, NPD1 1 nM, 30 minutes later cisplatin 20 μM for 24 h",94.9%
same,viability at 0.01 µM,"UB/OC-1 cells [2]; read-out: Set III Cell Viability, NPD1 10 nM, 30 minutes later cisplatin 20 μM for 24 h",96.5%
same,viability at 0.1 µM,"UB/OC-1 cells [2]; read-out: Set III Cell Viability, NPD1 100 nM, 30 minutes later cisplatin 20 μM for 24 h",97.6%
same,cell survival,UB/OC-1 cells [2]; NPD1 treatment in cisplatin-induced damaged cells,over 96%
same,TRPV-1 expression (staining),TRPV-1; [8],decrease
same,TNFα expression (staining),TNFα; [8],decrease
same,cell viability,"UB/OC-1 cells [3]; NPD1 1 nM-100 nM with cisplatin 20 μM, percent relative to vehicle-treated cells",over 95%
same,cell viability,"UB/OC-1 cells [3]; NPD1 at all tested concentrations (1 pM-100 nM) with cisplatin 20 μM, percent relative to vehicle-treated cells",over 80%
same,ROS staining,"[4]; NPD1 1 nM and 10 nM pre-treatment 30 minutes, then cisplatin 2.5 μM 30 minutes",decreased ROS staining
same,ROS staining,"[4]; NPD1 alone, no cisplatin",very little or no ROS staining
same,NOX3 expression (staining),NOX3; [9],significant decrease
same,iNOS expression (staining),iNOS; [9],significant decrease
"N.N.[Cl][Pt][Cl] [cisplatin, reference compound]",TRPV-1 staining,TRPV-1; [10],increased staining
same,TNFα staining,TNFα; [10],increased staining
same,cell viability,UB/OC-1 cells [3]; cisplatin 20 μM alone,reduced cell viability
same,ROS staining,"[4]; cisplatin 2.5 μM alone, 30 minutes",ROS staining in the cytoplasm of the cell
same,NOX3 staining,NOX3; [10],increased staining
same,iNOS staining,iNOS; [10],increased staining
